Each structure is given as a SMILES string.

By IC50 is commonly meant the concentration needed to halve the response being measured.

In this assay the target is recombinant human SYK (GST-hSYK fusion protein) (Homo sapiens, UniProt P43405). The assay is described as follows: biochemical.
Setting [1] is: rhSYK Activity, Table 113D, upper part.
Setting [2] is: rhSYK Activity (IC50), recombinant human GST-SYK 5 pM, ATP 25 μM, biotinylated substrate peptide 250 nM, HTRF, 10-dose titration.

Excerpt: Homogeneous Time-Resolved Fluorescence (HTRF) Assay for the Recombinant Human SYK Enzyme:

Regarding `Cc1cc(Nc2ncc(Cl)c(C)n2)cc(-c2cnc([C@@]3(O)CC[C@H](C(=O)O)[C@H](C)C3)s2)c1` [Example 113A-27], the IC50 (rhSYK Activity, Table 113A) is less than 100 nM. As to `Cc1cc(Nc2ncc(Cl)c(C)n2)cc(-c2cnc([C@]3(O)CC[C@@H](C(=O)O)[C@@H](C)C3)s2)c1` [Example 113A-28], the IC50 (rhSYK Activity, Table 113A) is less than 100 nM. The same measure, in the same setting: as for `CCOC(=O)C1CCC(O)(c2ncc(-c3cc(C)cc(Nc4nccc(CC)n4)c3)s2)CC1C` (stereo not shown) [Example 113A-31], the figure is less than 100 nM; as for `Cc1cc(Nc2ncc(F)c(C3CC3)n2)cc(-c2cnc([C@@]3(O)CC[C@H](C(=O)O)[C@H](C)C3)s2)c1` [Example 113A-33], less than 100 nM; as for `Cc1cc(Nc2ncc(F)c(C3CC3)n2)cc(-c2cnc([C@]3(O)CC[C@@H](C(=O)O)[C@@H](C)C3)s2)c1` [Example 113A-34], less than 100 nM. Same read-out and setting: for `Cc1cc(Nc2nccc(OC(C)C)n2)cc(-c2cnc([C@]3(O)CC[C@@H](C(=O)O)[C@@H](C)C3)s2)c1` [Example 113A-35] the value was less than 100 nM; for `COc1nc(Nc2cc(C)cc(-c3cnc([C@@]4(O)CC[C@H](C(=O)O)[C@H](C)C4)s3)c2)ncc1Cl` [Example 113A-36], less than 100 nM. Still for that read-out and setting: as for `COc1nc(Nc2cc(C)cc(-c3cnc([C@]4(O)CC[C@@H](C(=O)O)[C@@H](C)C4)s3)c2)ncc1Cl` [Example 113A-37], the figure is less than 100 nM. As for `COCCOc1ccnc(Nc2cc(C)cc(-c3cnc(C4(O)CCC(C(=O)O)C(C)C4)s3)c2)n1` (stereo not shown) [Example 113A-38], the IC50 (rhSYK Activity, Table 113A) was less than 100 nM. On the same count and under the same terms, for `COCCCOc1ccnc(Nc2cc(C)cc(-c3cnc(C4(O)CCC(C(=O)O)C(C)C4)s3)c2)n1` (stereo not shown) [Example 113A-40] the value was less than 100 nM; for `COCc1cc(Nc2nccc(C(F)(F)F)n2)cc(-c2cnc(C3(O)CCC(C(=O)O)C(C)C3)s2)c1` (stereo not shown) [Example 113A-42], less than 100 nM.

Regarding `CCOC(=O)C1CCC(O)(c2ncc(-c3cc(C)cc(Nc4nccc(OCCOC)n4)c3)s2)CC1C` (stereo not shown) [Example 113A-43], the IC50 (rhSYK Activity, Table 113A) is less than 100 nM.

Turning to `CCOC(=O)C1CCC(O)(c2ncc(-c3cc(C)cc(Nc4nccc(OCCCOC)n4)c3)s2)CC1C` (stereo not shown) [Example 113A-47], the IC50 (rhSYK Activity, Table 113A) was less than 100 nM.

On to `CCc1ccnc(Nc2cc(C)cc(-c3cnc([C@@]4(O)CC[C@H](C(=O)O)C(C)(C)C4)s3)c2)n1` [Example 113A-49], for which the IC50 (rhSYK Activity, Table 113A) was less than 100 nM. Still for that read-out and setting: as for `COC(=O)[C@H]1CC[C@](O)(c2ncc(-c3cc(C)cc(Nc4nccc(C#N)n4)c3)s2)CC1(C)C` [Example 113A-50], the figure is less than 100 nM. The same measure, in the same setting: as for `Cc1cc(Nc2nccc(C3CC3)n2)cc(-c2cnc(C3(O)CCC(C(=O)O)C(C)(C)C3)s2)c1` (stereo not shown) [Example 113A-51], the figure is less than 100 nM. On the same count and under the same terms, for `Cc1cc(Nc2nccc(C(C)C)n2)cc(-c2cnc(C3(O)CCC(C(=O)O)C(C)(C)C3)s2)c1` (stereo not shown) [Example 113A-52] the value was less than 100 nM; for `CCc1ccnc(Nc2cc(C)cc(-c3cnc([C@@]4(O)CC[C@H](C(=O)OC)C(C)(C)C4)s3)c2)n1` [Example 113A-53], less than 100 nM; for `COC(=O)[C@H]1CC[C@](O)(c2ncc(-c3cc(C)cc(Nc4nccc(OC)n4)c3)s2)CC1(C)C` [Example 113A-54], less than 100 nM. Take `COC(=O)[C@@H]1CC[C@@](O)(c2ncc(-c3cc(C)cc(Nc4nccc(OC)n4)c3)s2)CC1(C)C` [Example 113A-55]: the IC50 (rhSYK Activity, Table 113A) is less than 100 nM. Same read-out and setting: as for `COC(=O)C1CCC(O)(c2ncc(-c3cc(C)cc(Nc4nccc(C5CC5)n4)c3)s2)CC1(C)C` (stereo not shown) [Example 113A-56], the figure is less than 100 nM. On the same count and under the same terms, for `Cc1cc(Nc2ncc(F)c(C3CC3)n2)cc(-c2cnc(C3(O)CCC(C(=O)O)C(C)(C)C3)s2)c1` (stereo not shown) [Example 113A-57] the value was less than 100 nM; for `Cc1cc(Nc2ncc(F)c(C3CC3)n2)cc(-c2cnc([C@@]3(O)CC[C@H](C(=O)O)C(C)(C)C3)s2)c1` [Example 113A-58], less than 100 nM. The same measure, in the same setting: as for `COCc1cc(Nc2nccc(C(F)(F)F)n2)cc(-c2cnc([C@@]3(O)CC[C@H](C(=O)O)C(C)(C)C3)s2)c1` [Example 113A-62], the figure is less than 100 nM; as for `COC(=O)C1CCC(O)(c2ncc(-c3cc(Cl)cc(Nc4nccc(C(F)(F)F)n4)c3)s2)CC1(C)C` (stereo not shown) [Example 113A-63], 100 to 1000 nM. With `Cc1cc(Nc2nccc(C)n2)cc(-c2cnc(C3(O)CCC(C(=O)O)C(C)C3C)s2)c1` (stereo not shown) [Example 113A-66], the IC50 (rhSYK Activity, Table 113A) is less than 100 nM.

In the case of `CCOC(=O)C1CCC(O)(c2ncc(-c3cc(C)cc(Nc4nccc(C)n4)c3)s2)C(C)C1C` (stereo not shown) [Example 113A-70], where the note is “rhSYK Activity, Table 113A”, the half-maximal inhibitory concentration (IC50) was less than 100 nM.

For the compound `Cc1cc(Nc2nccc(C)n2)cc(-c2cnc(C3(O)CCC(C(=O)O)CC3C)s2)c1` (stereo not shown) [Example 113A-80], the IC50 (rhSYK Activity, Table 113A) was less than 100 nM. Same read-out and setting: for `CCOC(=O)C1CCC(O)(c2ncc(-c3cc(C)cc(Nc4nccc(C)n4)c3)s2)C(C)C1` (stereo not shown) [Example 113A-87] the value was less than 100 nM. As for `Cc1cc(Nc2nccc(C(F)(F)F)n2)cc(-c2cnc(C3(O)CCC(C(=O)O)CC3C)s2)c1` (stereo not shown) [Example 113A-88], the IC50 (rhSYK Activity, Table 113A) was less than 100 nM. Still for that read-out and setting: for `CCOC(=O)C1CCC(O)(c2ncc(-c3cc(C)cc(Nc4nccc(C(F)(F)F)n4)c3)s2)C(C)C1` (stereo not shown) [Example 113A-89] the value was less than 100 nM. On the same count and under the same terms, as for `Cc1cc(Nc2nccc(C)n2)cc(-c2cnc(C3(O)CCC(C(=O)O)CC3O)s2)c1` (stereo not shown) [Example 113A-90], the figure is less than 100 nM; as for `Cc1cc(Nc2nccc(C)n2)cc(-c2cnc(C3(O)CCC(C(=O)O)CC3(C)C)s2)c1` (stereo not shown) [Example 113A-92], less than 100 nM. On to `Cc1cc(Nc2nccc(C)n2)cc(-c2cnc(C3(O)CC(C)C(C(=O)O)CC3C)s2)c1` (stereo not shown) [Example 113B-3], for which the IC50 (rhSYK Activity, Table 113B) is less than 100 nM. On the same count and under the same terms, for `CCOC(=O)C1CC(C)C(O)(c2ncc(-c3cc(C)cc(Nc4nccc(C)n4)c3)s2)CC1C` (stereo not shown) [Example 113B-7] the value was less than 100 nM; for `CCOC(=O)C1CC(C)C(O)(c2ncc(-c3cc(C)cc(Nc4nccc(C)n4)c3)s2)CC1C` (stereo not shown) [Example 113B-8], less than 100 nM; for `CCOC(=O)C1CC(C)C(O)(c2ncc(-c3cc(C)cc(Nc4nccc(C)n4)c3)s2)CC1C` (stereo not shown) [Example 113B-9], less than 100 nM. As for `CCOC(=O)C1CC(C)C(O)(c2ncc(-c3cc(C)cc(Nc4nccc(C)n4)c3)s2)CC1C` (stereo not shown) [Example 113B-10], the IC50 (rhSYK Activity, Table 113B) was less than 100 nM. Same read-out and setting: as for `CCOC(=O)C1CC(C)C(O)(c2ncc(-c3cc(C)cc(Nc4nccc(C)n4)c3)s2)CC1C` (stereo not shown) [Example 113B-11], the figure is 100 to 1000 nM. Same read-out and setting: for `Cc1cc(Nc2nccc(C(F)(F)F)n2)cc(-c2cnc(C3(O)CC(C)C(C(=O)O)CC3C)s2)c1` (stereo not shown) [Example 113B-12] the value was less than 100 nM. Take `CCOC(=O)C1CC(C)C(O)(c2ncc(-c3cc(C)cc(Nc4nccc(C(F)(F)F)n4)c3)s2)CC1C` (stereo not shown) [Example 113B-17]: under “rhSYK Activity, Table 113B”, the IC50 is less than 100 nM. On to `CCOC(=O)C1CC(C)C(O)(c2ncc(-c3cc(C)cc(Nc4nccc(C(F)(F)F)n4)c3)s2)CC1C` (stereo not shown) [Example 113B-18], for which, for the setting “rhSYK Activity, Table 113B”, the IC50 is less than 100 nM. Same read-out and setting: for `CCOC(=O)C1CC(C)C(O)(c2ncc(-c3cc(C)cc(Nc4nccc(C(F)(F)F)n4)c3)s2)CC1C` (stereo not shown) [Example 113B-19] the value was less than 100 nM; for `CCOC(=O)C1CC(C)C(O)(c2ncc(-c3cc(C)cc(Nc4nccc(C(F)(F)F)n4)c3)s2)CC1C` (stereo not shown) [Example 113B-20], 100 to 1000 nM.

For the compound `Cc1cc(Nc2nccc(C)n2)cc(-c2cnc(C3(O)CC(C)C(C(=O)O)C(C)C3)s2)c1` (stereo not shown) [Example 113B-21], the IC50 (rhSYK Activity, Table 113B) was less than 100 nM. On the same count and under the same terms, for `Cc1cc(Nc2nccc(C)n2)cc(-c2cnc(C3(O)CC(C)C(C(=O)OC(C)C)C(C)C3)s2)c1` (stereo not shown) [Example 113B-23] the value was 100 to 1000 nM; for `Cc1cc(Nc2nccc(C(F)(F)F)n2)cc(-c2cnc(C3(O)CC(C)C(C(=O)O)C(C)C3)s2)c1` (stereo not shown) [Example 113B-24], less than 100 nM.

In the case of `Cc1cc(Nc2nccc(C(F)(F)F)n2)cc(-c2cnc(C3(O)CC(C)C(C(=O)OC(C)C)C(C)C3)s2)c1` (stereo not shown) [Example 113B-26], the IC50 (rhSYK Activity, Table 113B) is 1000 to 10000 nM.

For the compound `Cc1cc(Nc2nccc(C(F)(F)F)n2)cc(-c2cnc(C3(O)CC(C)C(C(=O)OC(C)C)C(C)C3)s2)c1` (stereo not shown) [Example 113B-27], for the setting “rhSYK Activity, Table 113B”, the IC50 is 100 to 1000 nM. On the same count and under the same terms, as for `Cc1cc(Nc2nccc(C)n2)cc(-c2cnc(C3(O)C(C)CC(C(=O)O)CC3C)s2)c1` (stereo not shown) [Example 113B-28], the figure is less than 100 nM; as for `CCOC(=O)C1CC(C)C(O)(c2ncc(-c3cc(C)cc(Nc4nccc(C)n4)c3)s2)C(C)C1` (stereo not shown) [Example 113B-29], less than 100 nM; as for `Cc1cc(Nc2nccc(C(F)(F)F)n2)cc(-c2cnc(C3(O)C(C)CC(C(=O)O)CC3C)s2)c1` (stereo not shown) [Example 113B-30], less than 100 nM. Same read-out and setting: as for `CCOC(=O)C1CC(C)C(O)(c2ncc(-c3cc(C)cc(Nc4nccc(C(F)(F)F)n4)c3)s2)C(C)C1` (stereo not shown) [Example 113B-31], the figure is less than 100 nM. As to `C=C(c1ccc(C(=O)O)cc1)c1ncc(-c2cc(C)cc(Nc3nccc(C(F)(F)F)n3)c2)s1` [Example 113D-1], the IC50 under setting [1] was less than 100 nM. The same measure, in the same setting: for `C=C(c1ccc(C(=O)OC)cc1)c1ncc(-c2cc(C)cc(Nc3nccc(C(F)(F)F)n3)c2)s1` [Example 113D-2] the value was 100 to 1000 nM; for `Cc1cc(Nc2nccc(C(F)(F)F)n2)cc(-c2cnc(C3(c4ccc(C(=O)O)cc4)CC3)s2)c1` [Example 113D-3], less than 100 nM; for `Cc1cc(Nc2nccc(C(F)(F)F)n2)cc(-c2cnc(C(C)(C)c3ccc(C(=O)O)cc3)s2)c1` [Example 113D-5], less than 100 nM. Turning to `Cc1cc(Nc2nccc(C(F)(F)F)n2)cc(-c2cnc(C(F)(F)c3ccc(C(=O)O)cc3)s2)c1` [Example 113D-7], the IC50 under setting [1] is less than 100 nM. As for `COC(=O)c1ccc(C(C)(C)c2ncc(-c3cc(C)cc(Nc4nccc(C(F)(F)F)n4)c3)s2)cc1` [Example 113D-9], the IC50 under setting [1] fell in the range of 100 to 1000 nM. As for `Cc1cc(Nc2nccc(C(F)(F)F)n2)cc(-c2cnc(-c3cn[nH]c3)s2)c1` [Example 114, N-{3-methyl-5-[2-(1H-pyrazol-4-yl)-1,3-thiazol-5-yl]phenyl}-4-(trifluoromethyl)pyrimidin-2-amine], the IC50 under setting [2] is less than 100 nM. On the same count and under the same terms, for `Cc1cc(Nc2nccc(C(F)(F)F)n2)cc(-c2cnc(-c3cnn4c3CCCC4)s2)c1` [Example 114-1] the value was less than 100 nM.

The record behind these values is patent publication US8551984B2, “Aminopyrimidines as SYK inhibitors” (Merck Sharp & Dohme Corp., priority 2009, dated 2013).
